Patent US11634447B2 (priority 2012, dated 2023)
Values joined by “and” are separate entries in the source; they are usually repeats but may differ in a detail not shown here. Identical values can stand only once.

Experiments:
FimH-CRD [1] = molecular target: T1, FimH-CRD (Escherichia coli, UniProt P08191); experiment: Competitive binding assay by fluorescence polarization, assay 1 (compounds prepared by manual dilution); parameters: species or system E. coli
T1 construct: The first 177 amino acids of the FimH protein are expressed as a fusion protein; thrombin tag (printed as 'fusion protein with thrombin') (cleaved yes); made in house; host or cells: bacteria (pET21b plasmid)
T1 sequence (P08191 22-177): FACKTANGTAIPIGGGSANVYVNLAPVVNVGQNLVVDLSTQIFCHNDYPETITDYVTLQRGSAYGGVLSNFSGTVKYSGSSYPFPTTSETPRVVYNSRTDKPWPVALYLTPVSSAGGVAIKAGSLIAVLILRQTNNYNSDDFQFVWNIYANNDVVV
Procedure: (§1) The first 177 amino acids of the FimH protein are expressed as a fusion protein with thrombin in a pET21b plasmid in bacteria. This FimH protein sequence contains the carbohydrate recognition domain (CRD) and shall be termed FimH-CRD. Following bacterial expression of the protein, the FimH-CRD protein is purified to homogeneity and the thrombin tag removed by protease cleavage. A competitive binding assay by fluorescence polarization is performed using 5 nM of the Alexa 647 mannoside probe and 60 nM of the FimH-CRD. The samples are assayed in a low volume 384 well microtiter plate in a final volume of 20 μl. The final assay buffer conditions are the following, 50 mM Tris-Cl, ph 7.0, 100 mM NaCl, 1 mM EDTA, 5 mM β-mercaptoethanol, 0.05% BSA and 2.5% DMSO. Two assays are performed for FimH, termed assay 1 or assay 2. The assay conditions are the same for both assays except the following: assay 1 has compounds prepared by manual dilution in a serial dilution factor with 12-point dose response while assay 2 has compounds prepared by a robotics system also through a serial dilution factor (12 point dose response) and initially prepared in duplicate in 384 well-Corning polypropylene round bottom plates. The assay 2 plates have compound which is then frozen and must be thawed prior to use. Initially the Alexa 647 probe and the FimH-CRD are added to the assay buffer and then 0.5 μl of test compound (assay 1 or 2) between 0.4 nM to 75 μM final concentration are added (12 point titration with 3-fold serial dilution). Control wells for the Alexa 647 probe are prepared with the same conditions except for the addition of the FimH-CRD protein. Plates are then incubated for 5 hrs at room temperature in the dark and under humid conditions to prevent drying. Plates are read using the SpectraMax Paradigm multi-mode plate reader and the appropriate fluorescent polarization detection cartridge (Alexa-647).
(§2) Alexa 647 mannoside probe is prepared using the similar procedure reported for FAM mannoside (Han, Z. et. al., 2010, J. Med. Chem., 53, 4779) and is described in the scheme below.
(§3) To a blue colored stirred solution of (2S,3S,4S,5S,6R)-2-(4-aminobutoxy)-6-(hydroxymethyl)tetrahydropyran-3,4,5-triol (2.21 mg, 0.009 mmol) and the (2E)-2-[(2E,4E)-5-[3,3-dimethyl-5-sulfonato-1-(3-sulfonatopropyl)indol-1-ium-2-yl]penta-2,4-dienylidene]-3-[6-(2,5-dioxopyrrolidin-1-yl)oxy-6-oxo-hexyl]-3-methyl-1-(3-sulfonatopropyl)indoline-5-sulfonate (Potassium Ion (3)) (4.9 mg, 0.0044 mmol) in DMF (44 μL) is added Et3N (5.4 mg, 7.0 μL, 0.053 mmol) at RT. The solution is stirred at room temperature over night, concentrated, dissolved in water and purified on 12 g C-18 silica gel cartridge on Isolera system using acetonitrile in water (0 to 40%, 10 CV) and followed by lyophilization to afford Alexa 647 mannoside probe (3.3 mg, 34%) as deep blue solid.
(§4) The Kd values of the compounds are determined from dose response curves using twelve concentrations per compound in duplicate. Curves are fitted to data points using Fluorescence Polarization competitive displacement analysis, and Kds are interpolated from the resulting curves using GraphPad Prism software, version […] (GraphPad software Inc., San Diego, Calif., USA).

FimH-CRD [2] = molecular target: T1, FimH-CRD; experiment: Competitive binding assay by fluorescence polarization, assay 2 (compounds prepared by a robotics system, plates frozen and thawed); parameters: species or system E. coli
Procedure: as §1, §2, §3, §4

[3] = system: bacterial strain LF82 binding to the glycoprotein BSA-(Mannose)3; experiment: Bacterial Binding Assay (BBA); format: cell-based, Escherichia coli; settings: read-out: Bacterial Binding Assay IC50, LF82/Luciferase strain binding to BSA-(Man)3 coated plates, luminescence
Method in brief: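 Inhibition of LF82/luciferase E. coli adhesion is read as luminescence after washing off unbound cells. Compound and bacteria (10^7 per well) are co-incubated 40-75 min at room temperature on wells coated with 0.5-2 μg/mL BSA-(Man)3, with BSA-only wells as background; IC50 values derived.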

[4] = Assay 1 Kd, 5 nM Alexa 647 mannoside probe, 60 nM FimH-CRD, replicate values in one cell
[5] = read-out: Assay 1 Kd, 5 nM Alexa 647 mannoside probe, 60 nM FimH-CRD, replicate values in one cell
[6] = Assay 2 Kd, 5 nM Alexa 647 mannoside probe, 60 nM FimH-CRD, replicate values in one cell

Compound	Kd (FimH-CRD [1]; [4])	Kd (FimH-CRD [1]; [5]) [nM]	Kd (FimH-CRD [2]; [6])	IC50 [3] [nM]	Kd (FimH-CRD [2]; read-out: Assay 2 Kd, 5 nM Alexa 647 mannoside probe, 60 nM FimH-CRD, replicate values in one cell) [nM]
OC[C@H]1O[C@H](CCCc2ccc(CCC[C@H]3O[C@H](CO)[C@@H](O)[C@H](O)[C@@H]3O)cc2)[C@@H](O)[C@@H](O)[C@@H]1O [Compound 38, (2R,3S,4R,5S,6R)-2-(hydroxymethyl)-6-[3-[4-[3-[(2R,3S,4R,5S,6R)-3,4,5-trihydroxy-6-(hydroxymethyl)tetrahydropyran-2-yl]propyl]phenyl]propyl]tetrahydropyran-3,4,5-triol]	< 5 nM	< 5	< 5 nM (2×) and 21 nM	410	–
OC[C@H]1O[C@H](c2ccc(-c3ccc([C@H]4O[C@H](CO)[C@@H](O)[C@H](O)[C@@H]4O)cc3)cc2)[C@@H](O)[C@@H](O)[C@@H]1O [Compound 6, (2R,2 ,3S,3,4R,4,5S,5,6R,6)-6,6([1,1Biphenyl]-4,4diyl)bis(2-(hydroxymethyl)tetrahydro-2H-pyran-3,4,5-triol)]	< 5 nM	< 5	< 5 nM and 23 nM	95	–
O=C(NCCCNC(=O)c1cccc([C@H]2O[C@H](CO)[C@@H](O)[C@H](O)[C@@H]2O)c1)c1cccc([C@H]2O[C@H](CO)[C@@H](O)[C@H](O)[C@@H]2O)c1 [Compound 9, (R,R,S,R,S)-N,N′-(Propane-1,3-diyl)bis(3-((2R,3S,4R,5S,6R)-3,4,5-trihydroxy-6-(hydroxymethyl)tetrahydro-2H-pyran-2-yl)benzamide)]	7 nM and 12 nM	–	24 nM	–	–
OC[C@H]1O[C@H](c2ccc(-c3cccc([C@H]4O[C@H](CO)[C@@H](O)[C@H](O)[C@@H]4O)c3)cc2)[C@@H](O)[C@@H](O)[C@@H]1O [Compound 5, (2R,2,3S,3,4R,4,5S,5,6R,6)-6,6([1,1Biphenyl]-3,4diyl)bis(2-(hydroxymethyl)tetrahydro-2H-pyran-3,4,5-triol)]	< 5 nM	< 5	49 nM and < 5 nM (2×)	580	–
OC[C@H]1O[C@H](c2cn([C@H]3O[C@H](CO)[C@@H](O)[C@H](O)[C@@H]3O)nn2)[C@@H](O)[C@@H](O)[C@@H]1O [Compound 42, ((2R,3S,4R,5S,6R)-2-(Hydroxymethyl)-6-[1-[(2S,3S,4S,5S,6R)-3,4,5-trihydroxy-6-(hydroxymethyl)tetrahydropyran-2-yl]triazol-4-yl]tetrahydropyran-3,4,5-triol)]	114 nM and 377 nM	–	140 nM and 145 nM	–	–
OC[C@H]1O[C@H](CCCC[C@H]2O[C@H](CO)[C@@H](O)[C@H](O)[C@@H]2O)[C@@H](O)[C@@H](O)[C@@H]1O [Compound 23]	9 nM and 12 nM	–	25 nM and < 5 nM and 14 nM	5800	–
O=C(NCCCCCNC(=O)c1cccc([C@H]2O[C@H](CO)[C@@H](O)[C@H](O)[C@@H]2O)c1)c1cccc([C@H]2O[C@H](CO)[C@@H](O)[C@H](O)[C@@H]2O)c1 [Compound 11, (R,R,S,R,S)-N,N′-(Pentane-1,5-diyl)bis(3-((2R,3S,4R,5S,6R)-3,4,5-trihydroxy-6-(hydroxymethyl)tetrahydro-2H-pyran-2-yl)benzamide)]	< 5 nM and 11 nM	–	16 nM	–	–
O=C(NCCCCCCCCNC(=O)c1cccc([C@H]2O[C@H](CO)[C@@H](O)[C@H](O)[C@@H]2O)c1)c1cccc([C@H]2O[C@H](CO)[C@@H](O)[C@H](O)[C@@H]2O)c1 [Compound 14, (R,R,S,R,S)-N,N′-(Octane-1,8-diyl)bis(3-((2R,3S,4R,5S,6R)-3,4,5-trihydroxy-6-(hydroxymethyl)tetrahydro-2H-pyran-2-yl)benzamide)]	11 nM and 13 nM	–	43 nM and 6 nM and 14 nM	4100	–
OC[C@H]1O[C@H](c2ccc([C@H]3O[C@H](CO)[C@@H](O)[C@H](O)[C@@H]3O)cc2)[C@@H](O)[C@@H](O)[C@@H]1O [Compound 1, (2R,3S,4R,5S,6R)-2-(Hydroxymethyl)-6-[4-[(2R,3S,4R,5S,6R)-3,4,5-trihydroxy-6 (hydroxymethyl)tetrahydropyran-2-yl]phenyl]tetrahydropyran-3,4,5-triol]	< 5 nM (2×) and 8 nM	–	13 nM and 8 nM	5270	–
O=C(Nc1ccc(Cc2ccc(NC(=O)c3cccc([C@H]4O[C@H](CO)[C@@H](O)[C@H](O)[C@@H]4O)c3)cc2)cc1)c1cccc([C@H]2O[C@H](CO)[C@@H](O)[C@H](O)[C@@H]2O)c1 [Compound 16]	< 5 nM and 6 nM	–	26 nM and < 5 nM and 9 nM	1510	–
OC[C@H]1O[C@H](CCc2cccc([C@H]3O[C@H](CO)[C@@H](O)[C@H](O)[C@@H]3O)c2)[C@@H](O)[C@@H](O)[C@@H]1O [Compound 37, ((2R,3S,4R,5S,6R)-2-(Hydroxymethyl)-6-[2-[3-[(2R,3S,4R,5S,6R)-3,4,5-trihydroxy-6-(hydroxymethyl)tetrahydropyran-2-yl]phenyl]ethyl]tetrahydropyran-3,4,5-triol)]	7 nM	–	18 nM and < 5 nM and 12 nM	1650	–
OC[C@H]1O[C@H](C/C=C/c2cccc(C#C[C@H]3O[C@H](CO)[C@@H](O)[C@H](O)[C@@H]3O)c2)[C@@H](O)[C@@H](O)[C@@H]1O [Compound 40, ((2R,3S,4R,5S,6R)-2-(Hydroxymethyl)-6-[(E)-3-[3-[2-[(2R,3S,4R,5S,6R)-3,4,5-trihydroxy-6-(hydroxymethyl)tetrahydropyran-2-yl]ethynyl]phenyl]allyl]tetrahydropyran-3,4,5-triol)]	< 5 nM and 18 nM	–	8 nM and 10 nM	43	–
OC[C@H]1O[C@H](C/C=C/c2cccc(/C=C/C[C@H]3O[C@H](CO)[C@@H](O)[C@H](O)[C@@H]3O)c2)[C@@H](O)[C@@H](O)[C@@H]1O [Compound 25, ((2R,3S,4R,5S,6R)-2-(Hydroxymethyl)-6-[(E)-3-[3-[(E)-3-[(2R,3S,4R,5S,6R)-3,4,5-trihydroxy-6-(hydroxymethyl)tetrahydropyran-2-yl]prop-1-enyl]phenyl]allyl]tetrahydropyran-3,4,5-triol)]	< 5 nM	< 5	21 nM and 10 nM and 12 nM	1400	–
OC[C@H]1O[C@H](CCc2ccc(CC[C@H]3O[C@H](CO)[C@@H](O)[C@H](O)[C@@H]3O)cc2)[C@@H](O)[C@@H](O)[C@@H]1O [Compound 22, ((2R,3S,4R,5S,6R)-2-(Hydroxymethyl)-6-[2-[4-[2-[(2R,3S,4R,5S,6R)-3,4,5-trihydroxy-6-(hydroxymethyl)tetrahydropyran-2-yl]ethyl]phenyl]ethyl]tetrahydropyran-3,4,5-triol)]	< 5 nM and 12 nM	–	14 nM and < 5 nM and 11 nM	1600	–
OC[C@H]1O[C@H](c2cccc(CCCCc3cccc([C@H]4O[C@H](CO)[C@@H](O)[C@H](O)[C@@H]4O)c3)c2)[C@@H](O)[C@@H](O)[C@@H]1O [Compound 52, ((2R,3S,4R,5S,6R)-2-(Hydroxymethyl)-6-[3-[4-[3-[(2R,3S,4R,5S,6R)-3,4,5-trihydroxy-6-(hydroxymethyl)tetrahydropyran-2-yl]phenyl]butyl]phenyl]tetrahydropyran-3,4,5-triol)]	–	–	< 5 nM	660	< 5
